Results as given in patent US6663881B2 (priority 1993, dated 2003).
Like-named read-outs stand apart in the source and are kept apart here.

Key:
[1] = test system: Vascular smooth muscle cells (BO54); assay: Scratch-migration assay; type: cell-based, baboon; set-up: key to Migration Grade in an Undisturbed Region of the Well / Migration Grade in the Cleared Area of the Well: −=no migration; +1=minimal; +2=mild; +3=moderate; +4=marked (maximum density; limit of cell contact inhibition) migration
Experimental: (§1) Scratch assays to determine the extent of smooth muscle cell migration inhibition by cytochalasin B were performed in accordance with the following protocol:
(§2) Vascular smooth muscle cells (BO54) were derived from explants of baboon aortic smooth muscle, as described in Example 10. The cells were grown in flat bottom, six well tissue culture plates, which hold about 5 ml of medium. The vascular smooth muscle cells were plated at 200,000 cells/well and placed at 37° C. in a humidified 5% CO2 incubator for 18 hours. The wells were then scratched with a sterile portion of a single edge razor blade that was held by clamp or pliers and was brought aseptically into contact with the bottom of the well at a 90° angle. The cells from a small area along the scratch were removed by a sterile cotton tipped applicator while the blade was in contact with the bottom of the well. After incubation, the presence of cells in the “scratched” area is indicative of cell migration across the scratch line.
(§3) Briefly, a stock solution of cytochalasin B (Sigma Chemical Co.) in dimethyl sulfoxide (DMSO) at 1 mg/ml was prepared. Test dilutions of cytochalasin B or control medium were added. Each experiment included two sets of plates:
(§4) A set: Test agent exposure for 1, 3, 6, 8 and 10 days only; and
(§5) B set: Test agent exposure for 1, 3, 6, 8 and 10 days, followed by a seven day recovery time with control medium.
Both sets of plates were fixed (10% formalin in PBS) and stained (0.02% crystal violet) at the end of the timed exposures. Test concentrations for cytochalasin B were 1, 0.1 and 0.01 μg/ml, and a negative medium control was included. Fresh medium and drug were supplied 3 times per week.
In this Table, “M” indicates Migration Grade, wherein −=no migration; +1=minimal; +2=mild; +3=moderate; and +4=marked (maximum density; limit of cell contact inhibition) migration of vascular smooth muscle cells into the cleared area adjacent to the scratch. In this Table, “T” denotes a morphological Toxicity Grade, wherein −=no toxicity; +1=minimal; +2=mild; +3=moderate; and +4=marked toxicity. The migration results are expressed as “Grade in the Cleared Area of the Well/Grade in an Undisturbed Region of the Well.” The toxicity values represent a grade for all cells in each well.

[2] = test system: balloon traumatized swine coronary arteries; assay: Dose-response study of balloon traumatized swine coronary arteries (Table 14, morphometry); type: in vivo
[3] = test system: Vascular smooth muscle cells
[4] = test system: Vascular smooth muscle cells (BO54); assay: Scratch-migration assay; type: cell-based, baboon; set-up: key: −=no toxicity; +1=minimal; +2=mild; +3=moderate; +4=marked toxicity; details: Continuous Exposure
Experimental: as §1, §2, §3, §4, §5
Both sets of plates were fixed (10% formalin in PBS) and stained (0.02% crystal violet) at the end of the timed exposures. Test concentrations for cytochalasin B were 1, 0.1 and 0.01 μg/ml, and a negative medium control was included. […]
In this Table, “M” indicates Migration Grade, wherein −=no migration; +1=minimal; +2=mild; +3=moderate; and +4=marked (maximum density; limit of cell contact inhibition) migration of vascular smooth muscle cells into the cleared area adjacent to the scratch. […] The migration results are expressed as “Grade in the Cleared Area of the Well/Grade in an Undisturbed Region of the Well.” The toxicity values represent a grade for all cells in each well.

[5] = 7-day Recovery Post Exposure, Day 1, 0.01 μg/mL
[6] = 7-day Recovery Post Exposure, Day 1, 0.1 μg/mL
[7] = 7-day Recovery Post Exposure, Day 1, 1.0 μg/mL
[8] = 7-day Recovery Post Exposure, Day 3, 0.01 μg/mL
[9] = 7-day Recovery Post Exposure, Day 3, 0.1 μg/mL
[10] = 7-day Recovery Post Exposure, Day 6, 0.1 μg/mL
[11] = 7-day Recovery Post Exposure, Day 6, 1.0 μg/mL
[12] = 7-day Recovery Post Exposure, Day 8, 0.01 μg/mL
[13] = 7-day Recovery Post Exposure, Day 8, 0.1 μg/mL
[14] = 7-day Recovery Post Exposure, Day 8, 1.0 μg/mL
[15] = 7-day Recovery Post Exposure, Day 10, 0.01 μg/mL
[16] = 7-day Recovery Post Exposure, Day 10, 0.1 μg/mL
[17] = 7-day Recovery Post Exposure, Day 10, 1.0 μg/mL
[18] = Continuous Exposure, Day 1, 0.01 μg/mL
[19] = Continuous Exposure, Day 1, 0.1 μg/mL
[20] = Continuous Exposure, Day 6, 0.01 μg/mL
[21] = Continuous Exposure, Day 6, 0.1 μg/mL
[22] = Continuous Exposure, Day 8, 0.01 μg/mL
[23] = Continuous Exposure, Day 8, 0.1 μg/mL
[24] = Continuous Exposure, Day 10, 0.01 μg/mL
[25] = Continuous Exposure, Day 10, 0.1 μg/mL

C=C1[C@@H](C)[C@H]2[C@H](Cc3ccccc3)NC(=O)[C@]23OC(=O)/C=C/[C@H](O)CCC[C@@H](C)C/C=C/[C@H]3[C@@H]1O [cytochalasin B]
morphological toxicity grade ([1]; 0.1 μg/ml, continuous exposure): −3 to +1 | Migration Grade in an Undisturbed Region of the Well [1, 5]: +4 | Migration Grade in the Cleared Area of the Well [1, 5]: +3 | Migration Grade in an Undisturbed Region of the Well [1, 6]: +4 | Migration Grade in the Cleared Area of the Well [1, 6]: +3 | Migration Grade in an Undisturbed Region of the Well [1, 7]: +3 | Migration Grade in the Cleared Area of the Well [1, 7]: +2 | Migration Grade in an Undisturbed Region of the Well [1, 8]: +4 | Migration Grade in the Cleared Area of the Well [1, 8]: +3 | Migration Grade in an Undisturbed Region of the Well [1, 9]: +4 | Migration Grade in the Cleared Area of the Well [1, 9]: +3 | Migration Grade in an Undisturbed Region of the Well ([1]; 7-day Recovery Post Exposure, Day 6, 0.01 μg/mL): +4/+4 | Migration Grade in an Undisturbed Region of the Well [1, 10]: +4 | Migration Grade in the Cleared Area of the Well [1, 10]: +3 | Migration Grade in an Undisturbed Region of the Well [1, 11]: +3 | Migration Grade in the Cleared Area of the Well [1, 11]: +2 | Migration Grade in an Undisturbed Region of the Well [1, 12]: +4/+4 | Migration Grade in the Cleared Area of the Well [1, 12]: +4/+4 | Migration Grade in an Undisturbed Region of the Well [1, 13]: +4 | Migration Grade in the Cleared Area of the Well [1, 13]: +3 | Migration Grade in an Undisturbed Region of the Well [1, 14]: +3 | Migration Grade in the Cleared Area of the Well [1, 14]: +2 | Migration Grade in an Undisturbed Region of the Well [1, 15]: +4/+4 | Migration Grade in the Cleared Area of the Well [1, 15]: +4/+4 | Migration Grade in an Undisturbed Region of the Well [1, 16]: +4/+4 | Migration Grade in the Cleared Area of the Well [1, 16]: +4/+4 | Migration Grade in an Undisturbed Region of the Well [1, 17]: +3 | Migration Grade in the Cleared Area of the Well [1, 17]: +2 | Migration Grade in an Undisturbed Region of the Well [1, 18]: +3 | Migration Grade in the Cleared Area of the Well [1, 18]: +1 | Migration Grade in an Undisturbed Region of the Well [1, 19]: +3 | Migration Grade in the Cleared Area of the Well [1, 19]: +1 | Migration Grade in an Undisturbed Region of the Well ([1]; Continuous Exposure, Day 1, 1.0 μg/mL): +2 | Migration Grade in an Undisturbed Region of the Well ([1]; Continuous Exposure, Day 3, 0.1 μg/mL): +4 | Migration Grade in an Undisturbed Region of the Well [1, 20]: +4 | Migration Grade in the Cleared Area of the Well [1, 20]: +3 | Migration Grade in an Undisturbed Region of the Well [1, 21]: +4 | Migration Grade in the Cleared Area of the Well [1, 21]: +2 | Migration Grade in an Undisturbed Region of the Well ([1]; Continuous Exposure, Day 6, 1.0 μg/mL): +2 | Migration Grade in an Undisturbed Region of the Well [1, 22]: +4 | Migration Grade in the Cleared Area of the Well [1, 22]: +3 | Migration Grade in an Undisturbed Region of the Well [1, 23]: +4 | Migration Grade in the Cleared Area of the Well [1, 23]: +2 | Migration Grade in an Undisturbed Region of the Well ([1]; Continuous Exposure, Day 8, 1.0 μg/mL): +2 | Migration Grade in an Undisturbed Region of the Well [1, 24]: +4 | Migration Grade in the Cleared Area of the Well [1, 24]: +3 | Migration Grade in an Undisturbed Region of the Well [1, 25]: +4 | Migration Grade in the Cleared Area of the Well [1, 25]: +2 | Migration Grade in an Undisturbed Region of the Well ([1]; Continuous Exposure, Day 10, 1.0 μg/mL): +2 | coronary luminal area ([2]; 0.1, 1.5 or 10.0 μg/ml, three weeks after intervention): sustained arterial dilation | myocardial or arterial lesions (histology) ([2]; in vivo): did not result in myocardial or arterial lesions | Morphological cytotoxicity grade ([3]; 0.01 μg, 24 hrs + 24 hrs): 0 | Morphological cytotoxicity grade ([3]; 0.01 μg, 24 hrs + 48 hrs): 0 | Morphological cytotoxicity grade ([3]; 0.01 μg, 24 hrs + 72 hrs): 0 | Morphological cytotoxicity grade ([3]; 0.01 μg, 24 hrs + 96 hrs): 0 | Morphological cytotoxicity grade ([3]; 0.01 μg, 24 hrs + 120 hrs): 0 | Morphological cytotoxicity grade ([3]; 0.01 μg, Continuous 6 hrs): 0 | Morphological cytotoxicity grade ([3]; 0.01 μg, Continuous 24 hrs (first listing)): 0 | Morphological cytotoxicity grade ([3]; 0.01 μg, Continuous 24 hrs (second listing)): 0 | Morphological cytotoxicity grade ([3]; 0.01 μg, Continuous 48 hrs): 0 | Morphological cytotoxicity grade ([3]; 0.01 μg, Continuous 72 hrs): 0 | Morphological cytotoxicity grade ([3]; 0.01 μg, Continuous 96 hrs): 0 | Morphological cytotoxicity grade ([3]; 0.01 μg, Continuous 120 hrs): 0 | Morphological cytotoxicity grade ([3]; 0.01 μg, Continuous 168 hrs): 0 | Morphological cytotoxicity grade ([3]; 0.01 μg, Continuous 216 hrs): 0 | Morphological cytotoxicity grade ([3]; 0.01 μg, Continuous 264 hrs): 0 | Morphological cytotoxicity grade ([3]; 0.1 μg, 5 min + 2 hrs): 0 | Morphological cytotoxicity grade ([3]; 0.1 μg, 5 min + 24 hrs): 0 | Morphological cytotoxicity grade ([3]; 0.1 μg, 5 min + 48 hrs): 0 | Morphological cytotoxicity grade ([3]; 0.1 μg, 5 min + 72 hrs): 0 | Morphological cytotoxicity grade ([3]; 0.1 μg, 5 min + 96 hrs): 0 | Morphological cytotoxicity grade ([3]; 0.1 μg, 5 min + 120 hrs): 0 | Morphological cytotoxicity grade ([3]; 0.1 μg, 24 hrs + 24 hrs): 0.5 | Morphological cytotoxicity grade ([3]; 0.1 μg, 24 hrs + 48 hrs): 1 | Morphological cytotoxicity grade ([3]; 0.1 μg, 24 hrs + 72 hrs): 0.5 | Morphological cytotoxicity grade ([3]; 0.1 μg, 24 hrs + 96 hrs): 0 | Morphological cytotoxicity grade ([3]; 0.1 μg, 24 hrs + 120 hrs): 0 | Morphological cytotoxicity grade ([3]; 0.1 μg, Continuous 6 hrs): 0 | Morphological cytotoxicity grade ([3]; 0.1 μg, Continuous 24 hrs (first listing)): 1 | Morphological cytotoxicity grade ([3]; 0.1 μg, Continuous 24 hrs (second listing)): 0 | Morphological cytotoxicity grade ([3]; 0.1 μg, Continuous 48 hrs): 1 | Morphological cytotoxicity grade ([3]; 0.1 μg, Continuous 72 hrs): 1 | Morphological cytotoxicity grade ([3]; 0.1 μg, Continuous 120 hrs): 1 | Morphological cytotoxicity grade ([3]; 0.1 μg, Continuous 168 hrs): 1 | Morphological cytotoxicity grade ([3]; 0.1 μg, Continuous 216 hrs): 1 | Morphological cytotoxicity grade ([3]; 0.1 μg, Continuous 264 hrs): 1 | Morphological cytotoxicity grade ([3]; 1 μg, 5 min + 2 hrs): 0 | Morphological cytotoxicity grade ([3]; 1 μg, 5 min + 48 hrs): 1 | Morphological cytotoxicity grade ([3]; 1 μg, 5 min + 72 hrs): 1 | Morphological cytotoxicity grade ([3]; 1 μg, 5 min + 96 hrs): 1 | Morphological cytotoxicity grade ([3]; 1 μg, 5 min + 120 hrs): 1 | Morphological cytotoxicity grade ([3]; 1 μg, 24 hrs + 24 hrs): 3 | Morphological cytotoxicity grade ([3]; 1 μg, 24 hrs + 48 hrs): 4 | Morphological cytotoxicity grade ([3]; 1 μg, 24 hrs + 72 hrs): 4 | Morphological cytotoxicity grade ([3]; 1 μg, 24 hrs + 96 hrs): 4 | Morphological cytotoxicity grade ([3]; 1 μg, 24 hrs + 120 hrs): 4 | Morphological cytotoxicity grade ([3]; 1 μg, Continuous 24 hrs (first listing)): 3 | Morphological cytotoxicity grade ([3]; 1 μg, Continuous 24 hrs (second listing)): 3 | Morphological cytotoxicity grade ([3]; 1 μg, Continuous 48 hrs): 3 | Morphological cytotoxicity grade ([3]; 1 μg, Continuous 72 hrs): 3 | Morphological cytotoxicity grade ([3]; 1 μg, Continuous 96 hrs): 3 | Morphological cytotoxicity grade ([3]; 1 μg, Continuous 120 hrs): 3 | Morphological cytotoxicity grade ([3]; 1 μg, Continuous 168 hrs): 4 | Morphological cytotoxicity grade ([3]; 1 μg, Continuous 216 hrs): 4 | Morphological cytotoxicity grade ([3]; 1 μg, Continuous 264 hrs): 4 | cytotoxicity grade at in vitro effective dosage ([3]; 1 μg/ml, anti-migration/contraction effective dose): 1 | Morphological cytotoxicity grade ([3]; 10 μg, 5 min + 2 hrs): 0.5 | Morphological cytotoxicity grade ([3]; 10 μg, 5 min + 24 hrs): 4 | Morphological cytotoxicity grade ([3]; 10 μg, 5 min + 48 hrs): 4 | Morphological cytotoxicity grade ([3]; 10 μg, 5 min + 120 hrs): 5 | Toxicity Grade ([4]; Day 6, 1.0 μg/mL): +4 | Toxicity Grade ([4]; Day 8, 1.0 μg/mL): +4 | Toxicity Grade ([4]; Day 10, 1.0 μg/mL): +4
